Reference: patent US8076347B2, “Compounds and methods for the treatment of cancer” (University of Georgia Research Foundation, Inc., priority 1995, dated 2011)
Entries after “also recorded” stand apart in the source; their conditions may differ.

Legend:
[1] = test system: Leukemia P388 cells; experiment: In vivo treatment of leukemia P388 cells implanted ip in BDF1 mice; conditions: 25 × 2 × 5 mg/kg ip, twice a day on days 1 to 5
From the text: 10^6 Leukemia P388 cells were implanted ip to BDF1 mice obtained from Southern Research Institute, Alabama.

[2] = test system: Colon 38 tumor cells; experiment: In vivo treatment of Colon 38 tumor cells implanted sc in BDF1 mice; conditions: 25 mg/kg/dose twice daily for five days
From the text: Colon 38 tumor cells were implanted sc to BDF1 mice.

[3] = test system: tumor cell lines; format: cell-based
[4] = biological target: cytidine deaminase (Homo sapiens, UniProt P32320); experiment: Enzymatic studies of deamination; format: biochemical
[5] = biological target: human deoxycytidine kinase (Homo sapiens, UniProt P27707); experiment: In vitro enzymatic studies of phosphorylation; format: biochemical
[6] = Phosphorylation to nucleotides in vivo
[7] = test system: HepG2 cells; experiment: Activity against HepG2 cells in nude mice; format: in vivo

cytidine deaminase, sequence (P32320 whole entry, species assumed): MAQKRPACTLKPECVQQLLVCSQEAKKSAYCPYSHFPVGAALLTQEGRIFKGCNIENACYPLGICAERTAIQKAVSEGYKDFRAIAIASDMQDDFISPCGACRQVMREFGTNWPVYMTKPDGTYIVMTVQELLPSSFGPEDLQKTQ
human deoxycytidine kinase, sequence (P27707 whole entry): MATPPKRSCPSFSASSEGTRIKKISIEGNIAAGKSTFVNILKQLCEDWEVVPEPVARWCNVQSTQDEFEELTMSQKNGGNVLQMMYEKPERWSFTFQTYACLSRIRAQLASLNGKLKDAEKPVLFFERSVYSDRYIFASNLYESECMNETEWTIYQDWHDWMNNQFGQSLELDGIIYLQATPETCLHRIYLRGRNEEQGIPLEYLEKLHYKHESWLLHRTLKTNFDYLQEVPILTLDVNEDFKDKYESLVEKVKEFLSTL

| SMILES | Cures/Total (survivors equal or greater than 45 day life span) ([1]; 5 mg/kg) | ILS (Increased Life Span percent above control) ([1]; 10^6 P388 cells ip on day 0) | colon tumor cell growth (FIG. 2) [2] | effectiveness compared with AraC ([3]; KB, DU-145 and PC-3 cell lines) | cytotoxicity in all of the tumor cell lines tested [3] | deamination / substrate for deaminase [4] | phosphorylation by human deoxycytidine kinase [5] | phosphorylation to mono-, di- and tri-phosphate nucleotide [6] | activity against HepG2 cells in nude mice [7] |
| --- | --- | --- | --- | --- | --- | --- | --- | --- | --- |
| Nc1ccn([C@@H]2CO[C@H](CO)O2)c(=O)n1 [(−)-OddC, (−)-(2S,4S)-1-(2-hydroxymethyl-1,3-dioxolan-4-yl)cytosine] | 1/6 | 103% | retarded | significantly more effective than AraC | more cytotoxic than AraC | not a substrate for deaminase; also recorded: not deaminated | can be phosphorylated by this enzyme | can be phosphorylated | active |
| Nc1ccn([C@@H]2O[C@H](CO)[C@@H](O)[C@@H]2O)c(=O)n1 [AraC, Cytosine arabinoside, reference compound] |  |  |  |  |  |  |  |  | inactive |
| O=c1ccn(C2COC(CO)O2)c(=O)[nH]1 (single isomer, unassigned; (-)) [(−)-OddU, reference compound] |  |  |  |  | not toxic |  |  |  |  |
